From the OPERA property sets (Mansouri et al. 2018)

Point of comparison: COc1ccccc1-c1nc2ccccc2[nH]1, logP 3.02. Against it:
- Clc1ccc2[nH]c(Cc3ccc(Br)cc3)nc2c1 — higher, 5.38
- COc1ccc(Cc2nc3cc([N+](=O)[O-])ccc3[nH]2)cc1 — higher, 3.48
- Clc1ccc(Cc2nc3cc(Cl)ccc3[nH]2)cc1 — higher, 5.18
- CC(C)(C)c1ccc(-c2nc3ncccc3[nH]2)cc1 — higher, 4.82
- COc1ccc(-c2nc3cc(C)ccc3[nH]2)c(OC)c1 — higher, 3.78
- Cc1ccc(-c2nc3cc([N+](=O)[O-])ccc3[nH]2)c(C)c1 — higher, 4.1
- Cc1ccccc1-c1nc2cc([N+](=O)[O-])ccc2[nH]1 — higher, 3.42
- Cc1ccc(-c2nc3ncccc3[nH]2)cc1 — the same, 3.02
- Cc1ccc(Cc2nc3cc(Cl)ccc3[nH]2)cc1 — higher, 5.21
- Fc1ccc(-c2nc3ncccc3[nH]2)cc1 — lower, 2.52
- Cc1ccc(-c2nc3ccccc3[nH]2)cc1 — higher, 3.67
- Clc1ccc(-c2nc3ncccc3[nH]2)cc1 — within 0.2 log units, 2.95
- Nc1ccc(Cc2nc3cc(Cl)ccc3[nH]2)cc1 — within 0.2 log units, 3.2
- CCc1ccc(-c2nc3ncccc3[nH]2)cc1 — higher, 3.42
